One series concerns K562/A02. The experiment in a line: Cytotoxicity against P-gp overexpressing human K562/A02 cells incubated for 48 hrs by MTT assay. It is filed as functional, cell-based. The settings on record: K562/A02, 48 h, read-out: IC50. In general terms: Tetrazolium dyes change colour on reduction, which living cells bring about.
Series [1] concerns the target T1, ATP-dependent translocase ABCB1 (Homo sapiens, UniProt P08183). The experiment in a line: Inhibition of P-gp-mediated multidrug resistance in human K562/A02 cells assessed as Adriamycin accumulation pretreated 1 hr followed by treated with adriamycin measured after 180 mins by flow cytometry. It is filed as cell-based. The conditions noted are these: k562/a02, 4 h, time 240 min. (In general: In flow cytometry, cells or beads pass a laser one at a time.)

Series [2] has as its target T1, ATP-dependent translocase ABCB1. Briefly: Inhibition of P-gp-mediated multidrug resistance in human K562/A02 cells assessed as Adriamycin accumulation at 1 to 10 uM pretreated 1 hr followed by treated with adriamycin measured after 180 mins by fluorescence microscopy. It counts as cell-based. The settings on record: k562/a02, 4 h, dose 1-10 µM, time 240 min.
The test system of series [3] is MDCK-II. The experiment in a line: cells. The conditions noted are these: Canis lupus familiaris, 48 h.
Description: Cytotoxicity against MDCK-II cells incubated for 48 hrs by MTT assay
Series [4] has as its system MDCK-II. Briefly: Inhibition of BCRP-mediated multidrug resistance in MDCK-II cells assessed as mitoxantrone accumulation at 0.1 to 5 uM pretreated 1 hr followed by treated with mitoxantrone measured after 180 mins by flow cytometry. It is filed as cell-based. The conditions noted are these: Canis lupus familiaris, dose 0.1-5 µM, time 240.0 min.
Series [5] relates to MDCK-II. Briefly: cells. The conditions noted are these: Canis lupus familiaris, 48 h. This is another data set of the same source.
Description: Cytotoxicity against BCRP-overexpressing MDCK-II cells incubated for 48 hrs by MTT assay
Series [6] has as its system K562. Briefly: cells. The settings on record: Homo sapiens, K562, 48 h, read-out: Activity.
Description: Potentiation of adriamycin-induced apoptosis in human K562 cells assessed as viable cells at 5 uM incubated for 48 hrs in presence of 10 uM adriamycin by Annexin-V/FITC-based flow cytometry (Rvb = 52.8%)
Series [7] relates to K562. The experiment in a line: Cytotoxicity against human K562 cells incubated for 48 hrs by MTT assay. It counts as functional, cell-based. The conditions noted are these: K562, 48 h.

Among the data in ChEMBL document CHEMBL4808186, “Structure-Based Discovery of Pyrimidine Aminobenzene Derivatives as Potent Oral Reversal Agents against P-gp- and BCRP-Mediated Multidrug Resistance” (J Med Chem, 2021) are IC50, Activity and viability values, retold here.

Calls of active or inactive are those of the source. No cut-off for these calls is given here.

T1 sequence (P08183 whole entry): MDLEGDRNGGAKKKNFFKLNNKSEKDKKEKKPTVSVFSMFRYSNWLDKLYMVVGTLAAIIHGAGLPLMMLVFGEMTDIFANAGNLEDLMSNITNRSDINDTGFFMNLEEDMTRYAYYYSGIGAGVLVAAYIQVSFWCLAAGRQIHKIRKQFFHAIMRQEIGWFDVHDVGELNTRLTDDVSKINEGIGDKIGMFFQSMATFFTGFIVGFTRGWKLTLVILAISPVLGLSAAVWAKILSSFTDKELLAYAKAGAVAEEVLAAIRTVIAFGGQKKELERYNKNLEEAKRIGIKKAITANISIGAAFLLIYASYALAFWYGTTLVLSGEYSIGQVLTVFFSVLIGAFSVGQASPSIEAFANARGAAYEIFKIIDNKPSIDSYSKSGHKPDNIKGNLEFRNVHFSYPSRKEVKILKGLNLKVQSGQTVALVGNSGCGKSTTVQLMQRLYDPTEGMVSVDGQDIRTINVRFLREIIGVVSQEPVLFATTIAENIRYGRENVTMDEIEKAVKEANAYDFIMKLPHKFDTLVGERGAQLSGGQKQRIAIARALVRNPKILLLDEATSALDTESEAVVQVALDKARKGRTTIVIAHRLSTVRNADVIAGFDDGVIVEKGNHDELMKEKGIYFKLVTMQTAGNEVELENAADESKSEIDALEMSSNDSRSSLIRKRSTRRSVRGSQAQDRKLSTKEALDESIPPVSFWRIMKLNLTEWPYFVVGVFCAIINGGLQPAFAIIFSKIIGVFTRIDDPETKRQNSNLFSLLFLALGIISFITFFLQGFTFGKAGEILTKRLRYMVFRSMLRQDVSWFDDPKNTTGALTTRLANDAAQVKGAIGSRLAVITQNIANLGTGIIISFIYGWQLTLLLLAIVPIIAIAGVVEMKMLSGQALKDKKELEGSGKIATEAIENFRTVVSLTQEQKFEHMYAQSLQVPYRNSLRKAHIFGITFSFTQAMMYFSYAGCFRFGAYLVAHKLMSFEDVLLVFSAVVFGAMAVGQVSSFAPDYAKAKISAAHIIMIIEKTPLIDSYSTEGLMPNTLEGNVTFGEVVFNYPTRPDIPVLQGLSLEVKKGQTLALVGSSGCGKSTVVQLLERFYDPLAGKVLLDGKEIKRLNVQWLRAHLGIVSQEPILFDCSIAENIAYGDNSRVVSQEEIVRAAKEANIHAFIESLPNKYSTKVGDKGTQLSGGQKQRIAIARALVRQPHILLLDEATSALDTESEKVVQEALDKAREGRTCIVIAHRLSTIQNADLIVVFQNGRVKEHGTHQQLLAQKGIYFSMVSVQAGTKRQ

For the compound `COc1cc2c(cc1OC)CN(CCc1ccc(NC(=O)c3cc(OC)c(OC)cc3NC(=O)c3cnc4ccccc4c3)cc1)CC2`, the concentration for half-maximal inhibition (IC50) in the series with K562/A02 is above 100 µM; in the series on MDCK-II [3], above 100 µM; with MDCK-II [5], 83.6 µM; with K562 [7], above 100 µM. Besides, the Activity entry in series [1] was “Dose-Dependent Effect”; in series [2] it was “Active”. In the series on MDCK-II [4], the result was Active. In the series with K562 [6], the viability at 5 µM amounted to 61.3%.

With `COc1ccc(CCN(C)CCCC(C#N)(c2ccc(OC)c(OC)c2)C(C)C)cc1OC` (configuration not stated), the 50% inhibitory concentration (IC50) in the series with K562/A02 and in the series on K562 [7] was above 100 µM in each case. Moreover, the Activity result is listed as “Dose-Dependent Effect” in series [1] and “Active” in series [2].

The IC50 is the concentration needed to halve the response being measured.
